This is an account of results in ChEMBL document CHEMBL3046463, “Antihepatotoxic, nephroprotective, and antioxidant activities of phenolic compounds from Satureja macrostema leaves against carbon tetrachloride-induced hepatic damage in mice” (Med Chem Res, 2013).

≈ marks a conversion by molar mass, not a printed value.

Common to all, as to type: functional
The test system of assay [1] is Mus musculus. The assay can be described thus: Nephroprotective activity in CD1 Mus musculus (mouse) assessed as reduction of CCl4-induced plasma creatinine level at 20 mg/kg, po administered 30 min before and 3 hr after CCl4 challenge measured 48 hr post CCl4 challenge (reference value: 1.2 +/- 0.006 mg/dl).
The test system of assay [2] is Mus musculus. Put plainly: Nephroprotective activity in CD1 Mus musculus (mouse) assessed as reduction of CCl4-induced plasma urea level at 20 mg/kg, po administered 30 min before and 3 hr after CCl4 challenge measured 48 hr post CCl4 challenge (reference value: 61.56 +/- 3.46 mg/dl).
A short description of assay [3]: Antioxidant activity assessed as inhibition of H2O2/Fe2+-induced radical generation.
For assay [4], the system named is Radical scavenging activity. Put plainly: Antioxidant activity assessed as DPPH free radical scavenging activity. (In general: DPPH is a stable violet radical that fades when it is reduced.)
The test system of assay [5] is Mus musculus. Put plainly: Hepatoprotective activity in CD1 Mus musculus (mouse) intoxicated with CCl4 assessed as increase in total protein level in serum at 20 mg/kg, po administered 30 min before and 3 hr after CCl4 challenge measured 48 hr post CCl4 challenge (reference value: 61.80 +/- 5.48 g/l).
For assay [6], the system named is Mus musculus. Put plainly: Hepatoprotective activity in CD1 Mus musculus (mouse) assessed as reduction of CCl4-induced total cholesterol level in serum at 20 mg/kg, po administered 30 min before and 3 hr after CCl4 challenge measured 48 hr post CCl4 challenge (reference value: 172.57 +/- 4.36 md/dl).
The test system of assay [7] is Mus musculus. The assay can be described thus: Hepatoprotective activity in CD1 Mus musculus (mouse) assessed as reduction of CCl4-induced serum alkaline phosphatase level at 20 mg/kg, po administered 30 min before and 3 hr after CCl4 challenge measured 48 hr post CCl4 challenge (reference value: 239.1 +/- 5.98 IU/l).
Assay [8] relates to Mus musculus. Put plainly: Hepatoprotective activity in CD1 Mus musculus (mouse) assessed as reduction of CCl4-induced serum aspartate aminotransferase level at 20 mg/kg, po administered 30 min before and 3 hr after CCl4 challenge measured 48 hr post CCl4 challenge (reference value: 487.3 +/- 6.21 IU/l).
The subject of assay [9] is Mus musculus. The assay can be described thus: Hepatoprotective activity in CD1 Mus musculus (mouse) assessed as reduction of CCl4-induced serum alanine aminotransferase level at 20 mg/kg, po administered 30 min before and 3 hr after CCl4 challenge measured 48 hr post CCl4 challenge (reference value: 296 +/- 7.93 IU/l).
The nature of assay [10]: Antioxidant activity assessed as superoxide radical scavenging activity.

In general, IC50 refers to the point on the concentration scale where inhibition reaches its midpoint. Turning to `COc1ccc([C@@H]2CC(=O)c3c(OC)cc(O[C@@H]4O[C@H](C)[C@@H](O)[C@H](O)[C@@H]4O)cc3O2)cc1O`, the Activity in assay [1] was 0.69 mg/dL; in assay [2], 46.62 mg/dL; in [5], 70.24 g/L; in assay [6], 140.13 mg/dL; in assay [7] it was 149.6 IU/L; in [8], 200.6 IU/L. Also, the Activity in assay [9] worked out at 143.6 IU/L. Also, the IC50 stood at 32.7 µg/mL (≈ 70.7 µM) in assay [3], 21.4 µg/mL (≈ 46.3 µM) in assay [4] and 39.76 µg/mL (≈ 86 µM) in assay [10].
Turning to `COc1c(O)cc([C@H]2Oc3cc(O)cc(O)c3C(=O)[C@@H]2O[C@@H]2O[C@H](C)[C@@H](O)[C@H](O)[C@@H]2O[C@@H]2O[C@H](C)[C@@H](O)[C@H](O)[C@@H]2O)cc1O`, the Activity was determined as 0.74 mg/dL in assay [1]; 49.43 mg/dL in assay [2]; 74.76 g/L in [5]; 129.31 mg/dL in assay [6]; 128.3 IU/L in assay [7]; 161.6 IU/L in assay [8]. In addition, the Activity in assay [9] amounted to 115.1 IU/L. The IC50 in assay [3] stood at 22.4 µg/mL (≈ 35.8 µM); in assay [4], 17.5 µg/mL (≈ 27.9 µM); in assay [10], 30.4 µg/mL (≈ 48.5 µM).
Turning to `COc1cc(O)cc2c1C(=O)[C@H](O[C@@H]1O[C@H](C)[C@@H](O)[C@H](O)[C@@H]1O)[C@@H](c1cc(O)c(OC)c(O)c1)O2`, the Activity in assay [1] turned out to be 0.71 mg/dL; in assay [2], 47.26 mg/dL; in [5] it was 71.57 g/L; in [6] it was 136.8 mg/dL; in [7], 137.5 IU/L; in assay [8], 189.4 IU/L. The Activity in [9] was found to be 124.2 IU/L. Also, the IC50 in assay [3] was determined as 26.7 µg/mL (≈ 54 µM); in assay [4] it was 11.6 µg/mL (≈ 23.5 µM); in assay [10] it was 35.2 µg/mL (≈ 71.2 µM).
Take `COc1ccc(-c2oc3cc(O[C@@H]4O[C@H](CO)[C@@H](O)[C@H](O[C@@H]5O[C@@H](C)[C@H](O)[C@@H](O)[C@H]5O)[C@H]4O)c(OC)c(O)c3c(=O)c2OC)cc1`: the Activity in [1] turned out to be 0.67 mg/dL; in assay [2] it was 44.78 mg/dL; in assay [5], 68.23 g/L; in assay [6], 143.28 mg/dL; in assay [7], 156.5 IU/L; in assay [8], 219.4 IU/L. Also, in assay [9], the Activity is recorded as 152.4 IU/L. Further, the IC50 in [3] worked out at 36.42 µg/mL (≈ 55.8 µM); in assay [4], 24.8 µg/mL (≈ 38 µM); in assay [10], 43.12 µg/mL (≈ 66.1 µM).
As to `C[C@H]1O[C@@H](Oc2cc(O)c3c(c2)O[C@H](c2cc(O)c(O)c(O)c2)CC3=O)[C@@H](O)[C@@H](O)[C@@H]1O`, the Activity in [1] came to 0.76 mg/dL; in assay [2], 51.1 mg/dL; in [5], 76.1 g/L; in assay [6], 124.34 mg/dL; in assay [7], 118.1 IU/L; in assay [8] it was 145.7 IU/L. Besides, in assay [9], the Activity turned out to be 103.4 IU/L. The values for the IC50 in assay [3], in assay [4] and in assay [10] were 18.2 µg/mL (≈ 40.4 µM), 9.3 µg/mL (≈ 20.6 µM) and 25.8 µg/mL (≈ 57.3 µM), respectively.
As to `O=c1c(O)c(-c2ccc(O)c(O)c2)oc2cc(O)cc(O)c12` [QUERCETIN], the IC50 in [3] was determined as 14.6 µg/mL (≈ 48.3 µM); in assay [4], 8.2 µg/mL (≈ 27.1 µM); in assay [10], 20.1 µg/mL (≈ 66.5 µM).
